Experiments:
[1] = biological target: T1, human CCR5 (Homo sapiens, UniProt P51681); experiment: Evaluation of test compounds based on CCR5 antagonistic activity: inhibition of [125I]-RANTES binding to CCR5/CHO cells; details: Test Compound 1 μM, 100 pM [125I]-RANTES, room temperature for 40 minutes, read-out: Inhibitory Rate (%)
T1 construct: expressed in transfected cells
Description: Cloning of CCR5 gene was carried out by a PCR method from human spleen cDNA. With using 0.5 ng of spleen cDNA (Toyobo, QUICK-Clone cDNA) as template, PCR was performed in DNA Thermal Cycler 480 (Perkin-Elmer) (reaction conditions: 30 cycles of 95° C. for 1 minute, 60° C. for 1 minute, and 75° C. for 5 minutes) by adding each 25 pmol of primers of a primer set, • SEQ ID NO.: 1 described in Test Example (1) of WO 99/32100 [length of sequence: 34; type of sequence: nucleic acid; strandedness: single; topology: straight; kind of sequence: other nucleic acid synthetic DNA, and • SEQ ID NO.: 2 described in Test Example (1) of WO 99/32100 [length of sequence: 34; type of sequence: nucleic acid; strandedness: single; topology: straight; kind of sequence: other nucleic acid synthetic DNA which were designed referring to nucleotide sequence of CCR5 gene reported by Samson et. al. (Biochemistry, 35(11), 3362-3367 (1996)) and by using TaKaRa EX Taq (Takara Shuzo). The resultant PCR product was subjected to agarose gel electrophoresis to collect about 1.0 kb DNA fragment, which was subjected to Original TA Cloning Kit (Funakoshi) to carry out cloning of CCR5 gene. (2) Preparation of Plasmid for Expression of Human CCR5
The plasmid obtained in the above (1) was digested with restriction enzymes XbaI (Takara Shuzo) and BamHI (Takara Shuzo) and subjected to agarose gel electrophoresis to collect about 1.0 kb DNA fragment.
The DNA fragment was mixed with plasmid pcDNA3.1 (Funakoshi) for expression in animal cells, said plasmid being digested with XbaI and BamHI, and they were ligated with DNA Ligation Kit Ver.2 (Takara Shuzo). The resulting plasmid was subjected to transformation of competent cell of E. coli JM109 (Takara Shuzo) to obtain plasmid pCKR5.
CHO-K1 cells were grown in 750 ml of tissue culture flask (Becton Dickinson) using Ham's F12 medium (Nihon Pharmaceutical) containing 10% fetal calf serum (Life Tech Oriental) and taken off with 0.5 g/L trypsin-0.2 g/L EDTA (Life Tech Oriental). The cells were washed with PBS (Life Tech Oriental), centrifuged (1000 rpm, 5 minutes), and suspended in PBS. With using Gene Pulser (Bio-Rad Laboratories), DNA was introduced into the cells under the conditions shown below. That is, to the cuvette of 0.4 cm gap were added 8×10^6 cells and 10 μg of plasmid pCKR5 for expression of human CCR5, and electroporation was carried out under 0.25 kV of voltage and 960 μF of capacitance. The cells were transferred into Ham's F12 medium containing 10% fetal calf serum, and cultivated for 24 hours. The cells were again taken off and centrifuged, and suspended in Ham's F12 medium containing 10% fetal calf serum and 500 μg/ml of geneticin (Life Tech Oriental). The suspension was diluted to give 10^4 cells/ml of the suspension, which was inoculated on a 96 well plate (Becton Dickinson) to give geneticin resistant cells.
The resulting geneticin resistant cells were cultivated in 96 well plate (Becton Dickinson), and cells expressing CCR5 were selected from the geneticin resistant cells. That is, in assay buffer (Ham's F12 medium containing 0.5% BSA and 20 mM HEPES (Wako Pure Chemical, pH7.2)) to which was added 200 pM of [^125I]-RANTES (Amersham) as a ligand, a binding reaction was carried out at room temperature for 46 minutes, and the buffer was washed with cooled PBS. To the buffer was added 50 μl/well of 1M NaOH, and the mixture was stirred. Radioactivity was determined with a y-counter to select CCR5/CHO cells which specifically bind to the ligand.
The CCR5/CHO cells were inoculated on 96 well microplate (5×10^4 cells/well) and cultivated for 24 hours. The medium was removed by means of suction, and to each well was added an assay buffer containing Test Compound (1 μM) and then 100 pM of [^125I]-RANTES (Amersham) as a ligand. A binding assay was carried out at room temperature for 40 minutes, and an assay buffer was removed by means of suction. […]

[2] = system: HIV-1 BA-L; experiment: Inhibitory effect on HIV-1 infection to MAGI-CCR5 cell (β-galactosidase blue cell count); type: cell-based; details: 100 μl medium containing 1.6 μM of Test Compound + 100 μl medium containing 300 PFU of HIV-1 BA-L; MAGI-CCR5 cells; 37° C. for 2 days
Description: (5) Inhibitory Effect on HIV-1 Infection to MAGI-CCR5 Cell
The plasmid where β-galactosidase gene was ligated downstream of HIV-1 LTR was introduced into CD4 positive HeLa cell, to which human CCR5 was further introduced to obtain transformant MAGI-CCR5.
By using said transformant MAGI-CCR5, a degree of HIV-1 infection was calculated using β-galactosidase activity (blue color due to decomposition of 5-bromo-4-chloro-3-indolyl-β-D-galactopyranoside) as an index. Specifically, MAGI-CCR5 cells were suspended in DMEM medium containing 10% serum to prepare 5×10^4 cells/ml suspension. To each well of 96 well plate was inoculated 200 μl of the suspension, and the cells were cultivated at 37° C. overnight. The medium was removed by means of suction, and to the residue was added 100 μl of the above medium containing 1.6 μM of Test Compound and 100 μl of the above medium containing 300 PFU of HIV-1 BA-L cells. The cells were cultivated at 37° C. for 2 days. The medium was removed by means of suction. To the residue was added 200 μl of a cell fixative (PBS containing 1% formaldehyde and 0.2% glutaraldehyde), and the mixture was allowed to stand at room temperature for 5 minutes and washed twice with PBS. To the mixture was added 100 μl of staining solution (PBS containing […] and 0.4 mg/ml X-gal), and the mixture was allowed to stand at 37° C. for 50 minutes and washed twice with PBS. The number of blue cells was counted by a microscope and defined as the number of cells infected with HIV-1. According to this method, inhibition rate of HIV-1 infection was determined.

T1 sequence (P51681 whole entry): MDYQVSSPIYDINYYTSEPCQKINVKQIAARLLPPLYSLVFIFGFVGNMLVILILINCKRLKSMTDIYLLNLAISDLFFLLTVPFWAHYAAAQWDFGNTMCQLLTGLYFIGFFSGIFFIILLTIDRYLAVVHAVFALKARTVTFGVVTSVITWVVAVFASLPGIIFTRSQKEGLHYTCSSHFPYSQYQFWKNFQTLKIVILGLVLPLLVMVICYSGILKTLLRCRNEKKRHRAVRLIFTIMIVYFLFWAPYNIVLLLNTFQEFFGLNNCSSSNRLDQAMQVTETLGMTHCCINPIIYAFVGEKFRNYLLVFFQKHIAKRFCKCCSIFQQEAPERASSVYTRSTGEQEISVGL

Row | inhibition at 1 µM [1] [%] | melting point [°C] | SMILES | Inhibitation Rate (%) [2] [%]
1 | 99 | 106 to 108 | CCCOCCOc1ccc(-c2ccc3c(c2)C=C(C(=O)Nc2ccc(CN(C)C4CCOCC4)cc2)CCN3CC)cc1 [Compound 17, 1-ethyl-N-[4-[[N-methyl-N-(tetrahydro-2H-pyran-4-yl)amino]methyl]phenyl]-7-[4-(2-propoxyethoxy)phenyl)-2,3-dihydro-1H-1-benzazepine-4-carboxamide] | 94
2 | 93 | 192 to 194 | CCOCCOc1ccc(-c2ccc3c(c2)C=C(C(=O)Nc2ccc(CN(C)C4CCOCC4)cc2)CCN3C=O)cc1 [Compound 1, 7-[4-(2-ethoxyethoxy)phenyl]-1-formyl-N-[4-[[N-methyl-N-(tetrahydro-2H-pyran-4-yl)amino]methyl]phenyl]-2,3-dihydro-1H-1-benzazepine-4-carboxamide] | 85
3 | 96 | 187 to 189 | CC(C)OCCOc1ccc(-c2ccc3c(c2)C=C(C(=O)Nc2ccc(CN(C)C4CCOCC4)cc2)CCN3C=O)cc1 [Compound 14, 1-formyl-N-[4-[[N-methyl-N-(tetrahydro-2H-pyran-4-yl)amino]methyl]phenyl]-7-[4-(2-propoxy)ethoxyphenyl]-2,3-dihydro-1H-1-benzazepine-4-carboxamide] | 91
4 | 96 | 166 to 169 | CCOCCCOc1ccc(-c2ccc3c(c2)C=C(C(=O)Nc2ccc(CN(C)C4CCOCC4)cc2)CCN3C=O)cc1 [Compound 2, 7-[4-(3-ethoxypropoxy)phenyl]-1-formyl-N-[4-[[N-methyl-N-(tetrahydro-2H-pyran-4-yl)amino]methyl]phenyl]-2,3-dihydro-1H-1-benzazepine-4-carboxamide] | –
5 | 100 | 110 to 111 | C=CCN1CCC(C(=O)Nc2ccc(CN(C)C3CCOCC3)cc2)=Cc2cc(-c3ccc(OCCOCCC)cc3)ccc21 [Compound 49, 1-allyl-N-[4-[[N-methyl-N-(tetrahydropyran-4-yl)amino]methyl]phenyl]-7-(4-propoxyethoxyphenyl)-2,3-dihydro-1-benzazepine-4-carboxamide] | –
6 | 96 | 114.5 to 116.5 | CCOCCOc1ccc(-c2ccc3c(c2)C=C(C(=O)Nc2ccc(CN(C)C4CCOCC4)cc2)CCN3CC)cc1 [Compound 16, 7-[4-(2-ethoxyethoxy)phenyl]-1-ethyl-N-[4-[[N-methyl-N-(tetrahydro-2H-pyran-4-yl)amino]methyl]phenyl]-2,3-dihydro-1H-1-benzazepine-4-carboxamide] | 94
7 | 97 | 117 to 119 | CCOc1cc(-c2ccc3c(c2)C=C(C(=O)Nc2ccc(CN(C)C4CCOCC4)cc2)CCN3C=O)ccc1OCCOC(C)C [Compound 23, 7-[3-ethoxy-4-(2-propoxy)ethoxyphenyl]-1-formyl-N-[4-[[N-methyl-N-(tetrahydro-2H-pyran-4-yl)amino]methyl]phenyl]-2,3-dihydro-1H-1-benzazepine-4-carboxamide] | –

Row | SMILES | inhibition at 1 µM [1] [%] | melting point [°C] | Inhibitation Rate (%) [2] [%]
8 | CCCCOCCOc1ccc(-c2ccc3c(c2)C=C(C(=O)Nc2ccc(CN(C)C4CCOCC4)cc2)CCN3Cc2nnnn2C)cc1 [Compound 101, 7-[4-(2-butoxyethoxy)phenyl]-N-[4-[N-methyl-N-(tetrahydropyran-4-yl)aminomethyl]phenyl]-1-(1-methyltetrazol-5-ylmethyl)-2,3-dihydro-1-benzazepine-4-carboxamide] | 100 | 132 to 135 | –
9 | CCCCOCCOc1ccc(-c2ccc3c(c2)C=C(C(=O)Nc2ccc(CN(C)C4CCOCC4)cc2)CCN3CCC)cc1 [Compound 27, 7-[4-(2-butoxyethoxy)phenyl]-N-[4-[[N-methyl-N-(tetrahydro-2H-pyran-4-yl)amino]methyl]phenyl]-1-propyl-2,3-dihydro-1H-1-benzazepine-4-carboxamide] | 100 | 122 to 124 | –
10 | CCCCOCCOc1ccc(-c2ccc3c(c2)C=C(C(=O)Nc2ccc(CN(C)C4CCOCC4)cc2)CCN3Cc2ccsc2)cc1 [Compound 58, 7-(4-butoxyethoxyphenyl)-N-[4-[[N-methyl-N-(tetrahydropyran-4-yl)amino]methyl]phenyl]-1-(3-thienylmethyl)-2,3-dihydro-1-benzazepine-4-carboxamide] | 99 | 122 to 123 | –
11 | CCCCOCCOc1ccc(-c2ccc3c(c2)C=C(C(=O)Nc2ccc(CN(C)C4CCOCC4)cc2)CCN3CC2CC2)cc1 [Compound 35, 7-[4-(2-butoxyethoxy)phenyl]-1-cyclopropylmethyl-N-[4-[[N-methyl-N-(tetrahydro-2H-pyran-4-yl)amino]methyl]phenyl]-2,3-dihydro-1H-1-benzazepine-4-carboxamide] | 100 | 92 to 94 | –
12 | C=CCN1CCC(C(=O)Nc2ccc(CN(C)C3CCOCC3)cc2)=Cc2cc(-c3ccc(OCCOCCCC)cc3)ccc21 [Compound 50, 1-allyl-7-(4-butoxyethoxyphenyl)-N-[4-[[N-methyl-N-(tetrahydropyran-4-yl)amino]methyl]phenyl]-2,3-dihydro-1-benzazepine-4-carboxamide] | 100 | 103 to 104 | –
